Experimental data: patent US10093656B2, “Fused-ring or tricyclic aryl pyrimidine compound used as kinase inhibitor” (NANJING SANHOME PHARMACEUTICAL CO., LTD, priority 2015, dated 2018)
pIC50: −log10 of the molar value.

Assays:
[1] = system: NCI-H1975 lung cancer patient-derived xenograft (CDX); test: Pharmacodynamics study in vivo, NCI-H1975 xenograft (CDX) model; set-up: species or system BALB/c nude mice; details: AZD9291 5 mg/kg
How it was run: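 Female BALB/c nude mice (6-8 weeks) carrying subcutaneous NCI-H1975 tumour tissue; dosing began at mean tumour volume about 150-200 mm^3. Compounds given orally once daily for 21 days at 10 or 20 mg/kg. Caliper measurements twice weekly, V = 0.5 a×b2.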

A431 cells EGFR WT = test: A431 cell viability assay (Cell Titer-Glo, 6 days); assay type: cell-based, human
How it was run: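 A431 (EGFR WT) and NCI-H1975 (EGFR L858R/T790M) cells treated for 6 days at 37° C, in duplicate with 10 three-fold doses from 10 μM to 0.508 nM final. Viability read as CellTiter-Glo luminescence. IC50 from four-parameter fit of % inhibition.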

EGFR T790M/L858R = target: T1, EGFR T790M/L858R (Homo sapiens, UniProt P00533, L858R/T790M); test: EGFR T790M/L858R enzyme HTRF inhibition assay; assay type: biochemical; details: 20 μM ATP, read-out: EGFR L858R/T79M IC50
T1 construct: purchased Life technology (Madison, Wis.)
T1 sequence (P00533 25-1210 T790M/L858R): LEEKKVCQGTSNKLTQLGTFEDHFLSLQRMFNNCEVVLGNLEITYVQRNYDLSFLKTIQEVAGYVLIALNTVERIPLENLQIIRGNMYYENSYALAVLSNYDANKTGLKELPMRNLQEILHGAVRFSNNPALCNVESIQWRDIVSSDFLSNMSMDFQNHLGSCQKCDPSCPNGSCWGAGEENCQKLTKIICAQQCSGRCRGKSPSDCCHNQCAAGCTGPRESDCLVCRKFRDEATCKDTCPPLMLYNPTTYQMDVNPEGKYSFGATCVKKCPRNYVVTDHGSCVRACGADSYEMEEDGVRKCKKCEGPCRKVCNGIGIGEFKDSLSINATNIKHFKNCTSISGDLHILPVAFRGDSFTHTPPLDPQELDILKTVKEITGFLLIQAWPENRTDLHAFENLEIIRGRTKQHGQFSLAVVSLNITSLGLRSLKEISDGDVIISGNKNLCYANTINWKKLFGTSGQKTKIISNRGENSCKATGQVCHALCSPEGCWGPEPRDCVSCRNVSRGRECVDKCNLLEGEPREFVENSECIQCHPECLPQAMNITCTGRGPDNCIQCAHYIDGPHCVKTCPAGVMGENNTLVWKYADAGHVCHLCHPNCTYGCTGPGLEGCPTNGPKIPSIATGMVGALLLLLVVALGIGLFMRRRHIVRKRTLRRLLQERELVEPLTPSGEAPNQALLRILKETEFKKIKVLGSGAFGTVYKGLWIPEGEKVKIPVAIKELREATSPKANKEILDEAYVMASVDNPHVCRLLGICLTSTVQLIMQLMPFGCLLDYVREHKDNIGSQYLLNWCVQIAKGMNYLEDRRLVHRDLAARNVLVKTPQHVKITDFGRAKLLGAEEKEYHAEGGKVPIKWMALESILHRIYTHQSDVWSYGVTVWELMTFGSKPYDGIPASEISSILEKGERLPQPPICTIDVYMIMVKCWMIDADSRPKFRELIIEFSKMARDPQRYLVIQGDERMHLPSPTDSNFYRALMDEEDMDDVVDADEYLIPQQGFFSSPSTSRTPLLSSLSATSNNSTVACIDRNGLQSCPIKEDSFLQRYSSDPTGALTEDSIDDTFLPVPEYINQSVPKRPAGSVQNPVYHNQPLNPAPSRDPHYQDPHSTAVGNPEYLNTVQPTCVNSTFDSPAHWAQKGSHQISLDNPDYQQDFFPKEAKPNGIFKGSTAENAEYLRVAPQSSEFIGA
How it was run: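 HTRF assay with 0.04 nM enzyme, 1 μM biotin-TK1 peptide and 20 μM ATP, 60 min at 23° C. Product detected with Eu-anti-TK1 antibody/XL665 (60 min at 23° C); compound at 10 doses, 300 nM to 0.015 nM final. IC50 from four-parameter fit.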

## C=CC(=O)Nc1cc(Nc2ncc(F)c(-c3c4n(c5cc(F)ccc35)CCOC4)n2)c(OC)cc1N(C)CCN(C)C [Embodiment 33, N-(2-((2-(Dimethylamino)ethyl)(methyl)amino)-5-((5-fluoro-4-(7-fluoro-3,4-dihydro-1H-[1,4]oxazino[4,3-a]indol-10-yl)pyrimidin-2-yl)amino)-4-methoxyphenyl)acrylamide]
[1]; day 4, oral daily: compound 30 10 mg/kg, 33, 34, 40, 42, 43 20 mg/kg
  Tumor Volume (mm^3) 4 days: 91 mm^3
[1]; day 7, oral daily: compound 30 10 mg/kg, 33, 34, 40, 42, 43 20 mg/kg
  Tumor Volume (mm^3) 7 days: 68 mm^3
[1]; day 11, oral daily: compound 30 10 mg/kg, 33, 34, 40, 42, 43 20 mg/kg
  Tumor Volume (mm^3) 11 days: 43 mm^3
[1]; day 14, oral daily: compound 30 10 mg/kg, 33, 34, 40, 42, 43 20 mg/kg
  Tumor Volume (mm^3) 14 days: 27 mm^3
[1]; day 18, oral daily: compound 30 10 mg/kg, 33, 34, 40, 42, 43 20 mg/kg
  Tumor Volume (mm^3) 18 days: 9 mm^3
[1]; day 21, oral daily: compound 30 10 mg/kg, 33, 34, 40, 42, 43 20 mg/kg
  Tumor Volume (mm^3) 21 days: 3 mm^3
A431 cells EGFR WT; Homo sapiens, A-431, 144 h, A431 cells, 6 days
  pIC50: 6.16
A431 cells EGFR WT; ratio of cell IC50 A431 to NCI-H1975
  A431:NCI-H1975 (ratio): 7.7
EGFR T790M/L858R
  pIC50: 9.30
